Test results from US7049311B1, “Pyrrolbenzodiazepines” (Spirogen Limited, priority 1998, dated 2006).
Where two headings read alike, the source gives them in different places.

How the values were obtained:
[1] = tested on: A2780cisR; experiment: Cytotoxicity in cisplatin-resistant A2780cisR (Example 9); assay type: cell-based, human
Procedure: (§1) Relative to the parental line, the A2780cisR subline is known to have elevated GSH levels, an increased level of repair of DNA-cisplatin adducts, and a decreased ability to uptake cisplatin (M. Smellie, et al., Br. J. Cancer, 1994, 70, 48).
(§2) The results, which were obtained by incubating the cells with the compounds for 96 hours at 37° C., and assessing the cell number using Sulforhodamine B, are presented in the table below: […]

[2] = tested on: human ovarian carcinoma cell line A2780; experiment: Cytotoxicity in A2780 (Example 9); assay type: cell-based; conditions: read-out: IC50 A2780
Procedure: as §1, §2

[3] = tested on: calf thymus DNA; experiment: DNA helix melting temperature assay; assay type: binding; conditions: [PBD]:[DNA] ratio of 1:5, calf thymus DNA
Procedure: The first assay, which is described in G. B. Jones, et al., Anti-Cancer Drug Des., 1990, 5, 249, which is incorporated herein by reference, determines the effect of the test compound on the helix melting temperature of DNA. This assay is designed to give an indication of the strength and extent of cross-linking of the DNA strands by the test compound (i.e. a measure of the stabilisation of the DNA upon ligand binding).
The melting temperature was determined for a 1:5 molar ratio of [ligand] [DNA], where the calf thymus DNA concentration is […] in aqueous sodium phosphate buffer (10 mM sodium phosphate+1 mM EDTA, pH 7.00±0.01). For calf thymus DNA at pH 7.00±0.01, the melting temperature is 67.83±0.06° C. (mean value from 30 separate determinations).

[4] = tested on: SKOV-3; experiment: Ovarian carcinoma cytotoxicity assay; assay type: cell-based; conditions: Homo sapiens
Procedure: (§3) Compounds of the invention (and Anthramycin as a comparison) were evaluated for their cytotoxic activity in ovarian cell lines by Dr Lloyd R. Kelland's group at The Institute of Cancer Research, Sutton, UK. The five cell lines investigated were SKOV-3, A2780/A2780cisR and CH1/CH1cisR (cis R denotes that the cell line is resistant to cisplatin).
(§4) Single viable cells were seeded in growth medium (160 μL) in […] microtitre plates and allowed to attach overnight. […] After 96 hours, the medium was removed and the remaining cells fixed by exposure to 10% trichloroacetic acid on ice for 30 minutes. The wells were then washed 3-4 times with tap water, air dried overnight and treated with 100 μL of sulphorhodamine B (0.4%) dissolved in 1% acetic acid. Staining was allowed to continue for 10-15 minutes, then the wells were washed 3-4 times with 1% acetic acid, air dried and then added to Tris base (100 μL of 10 mM). Plates were then shaken and absorbance readings at 540 nm were determined using a plate reader. By using the Quattro-Pro software package, the IC50 values were calculated from plots of concentration versus percentage absorbance (compared with 8 untreated wells).

[5] = tested on: CH1; experiment: Ovarian carcinoma cytotoxicity assay; assay type: cell-based; conditions: Homo sapiens
Procedure: as §3, §4

[6] = tested on: CH1cisR; experiment: Ovarian carcinoma cytotoxicity assay; assay type: cell-based; conditions: Homo sapiens, CH1cisR
Procedure: as §3, §4

[7] = tested on: MALME-3M; experiment: NCI in vitro cytotoxicity screen; assay type: cell-based; conditions: Homo sapiens, Malme-3M, 48 h, read-out: LC50
Procedure: (§5) The National Cancer Institute (NCI), Bethesda, Md., USA has available an in vitro cytotoxicity screen which consists of approximately 60 human tumour cell lines against which compounds are tested at a minimum of five concentrations each differing 10-fold. A 48 hour continuous exposure protocol is used, where cell viability or growth is estimated with an SRB protein assay.
(§6) The test compounds were evaluated against approximately 60 human tumour cell lines. The NCI screening procedures were described in detail by Monks and co-workers (Monks, A et al., Journal of the National Cancer Institute, 1991, 83, 757). Briefly, cell suspensions were diluted according to the particular cell type and the expected target cell density (5000-40,000 cells per well based on cell growth characteristics), and added by pipette (100 μL) into 96-well microtitre plates. The cells were allowed a preincubation period of 24 hours at 37° C. for stabilisation. Dilutions at twice the intended test concentration were added at time zero in 100 μL aliquots to the wells. The test compounds were evaluated at five 10-fold dilutions (10^−4, 10^−5, 10^−6, 10^−7 and 10^−[…]). The test compounds were incubated for 48 hours in 5% CO2 atmosphere and 100% humidity. The cells were then assayed using the sulphorhodamine B assay. A plate reader was used to read the optical densities and a microcomputer processed the readings into LC50 values, which is the dosage required to kill half of the cells.

[8] = tested on: SNB-75; experiment: NCI in vitro cytotoxicity screen; assay type: cell-based; conditions: Homo sapiens, SNB-75, 48 h, read-out: LC50
Procedure: as §5, §6

[9] = tested on: NCI-H460; experiment: NCI in vitro cytotoxicity screen; assay type: cell-based; conditions: Homo sapiens, NCI-H460, 48 h, read-out: LC50
Procedure: as §5, §6

[10] = tested on: UACC-62; experiment: NCI in vitro cytotoxicity screen; assay type: cell-based; conditions: Homo sapiens, UACC-62, 48 h, read-out: LC50
Procedure: as §5, §6

[11] = tested on: HCC-2998; experiment: NCI in vitro cytotoxicity screen; assay type: cell-based; conditions: Homo sapiens, HCC 2998, 48 h, read-out: LC50
Procedure: as §5, §6

[12] = tested on: KM12; experiment: NCI in vitro cytotoxicity screen; assay type: cell-based; conditions: Homo sapiens, KM12, 48 h, read-out: LC50
Procedure: as §5, §6

[13] = tested on: COLO 205; experiment: NCI in vitro cytotoxicity screen; assay type: cell-based; conditions: Homo sapiens, COLO 205, 48 h, read-out: LC50
Procedure: as §5, §6

[14] = tested on: A2780; experiment: Ovarian carcinoma cytotoxicity assay; assay type: cell-based, human; conditions: Homo sapiens
Procedure: as §3, §4

[15] = tested on: A2780cisR; experiment: Ovarian carcinoma cytotoxicity assay; assay type: cell-based, human; conditions: Homo sapiens, A2780cisR
Procedure: as §3, §4

[16] = tested on: RXF 393; experiment: NCI in vitro cytotoxicity screen; assay type: cell-based; conditions: Homo sapiens, RXF 393, 48 h, read-out: LC50
Procedure: as §5, §6

[17] = tested on: SK-MEL-2; experiment: NCI in vitro cytotoxicity screen; assay type: cell-based; conditions: Homo sapiens, SK-MEL-2, 48 h, read-out: LC50
Procedure: as §5, §6

[18] = tested on: NCI-H522; experiment: NCI in vitro cytotoxicity screen; assay type: cell-based; conditions: Homo sapiens, NCI-H522, 48 h, read-out: LC50
Procedure: as §5, §6

[19] = tested on: MDA-MB-435; experiment: NCI in vitro cytotoxicity screen; assay type: cell-based; conditions: Homo sapiens, MDA-MB-435, 48 h, read-out: LC50
Procedure: as §5, §6

[20] = tested on: SK-MEL-28; experiment: NCI in vitro cytotoxicity screen; assay type: cell-based; conditions: Homo sapiens, SK-MEL-28, 48 h, read-out: LC50
Procedure: as §5, §6

[21] = tested on: UACC-257; experiment: NCI in vitro cytotoxicity screen; assay type: cell-based; conditions: Homo sapiens, UACC-257, 48 h, read-out: LC50
Procedure: as §5, §6

[22] = tested on: approximately 60 human tumour cell lines; experiment: NCI in vitro cytotoxicity screen, whole panel; assay type: cell-based; conditions: all panels
Procedure: as §5
as §6, with “The test compounds were incubated for 48 hours in 5% CO2 atmosphere and 100% humidity. The cells were then assayed using the sulphorhodamine B assay.” left out

[23] = tested on: SF-539; experiment: NCI in vitro cytotoxicity screen; assay type: cell-based; conditions: Homo sapiens, SF-539, 48 h, read-out: LC50
Procedure: as §5, §6

[24] = tested on: M14; experiment: NCI in vitro cytotoxicity screen; assay type: cell-based; conditions: Homo sapiens, M14, 48 h, read-out: LC50
Procedure: as §5, §6

[25] = tested on: MDA-N; experiment: NCI in vitro cytotoxicity screen; assay type: cell-based; conditions: Homo sapiens, 48 h, read-out: LC50
Procedure: as §5, §6

[26] = SK-OV-3, 96 hours, sulphorhodamine B, read-out: IC50 Skov3
[27] = CH1, 96 hours, sulphorhodamine B, read-out: IC50 CH1
[28] = cisplatin-resistant, 96 hours, sulphorhodamine B, read-out: IC50 CH1cisR
[29] = A2780, 96 hours, sulphorhodamine B, read-out: IC50 A2780
[30] = cisplatin-resistant, 96 hours, sulphorhodamine B, read-out: IC50 A2780cisR

| SMILES | IC50 [4, 26] [nM] | IC50 [5, 27] [nM] | IC50 [6, 28] [nM] | CC50 [7] [nM] | CC50 [10] [nM] | CC50 [13] [nM] | IC50 [14, 29] [nM] | IC50 [15, 30] [nM] | CC50 [16] [nM] | CC50 [17] [nM] | CC50 [19] [nM] | also measured |
| --- | --- | --- | --- | --- | --- | --- | --- | --- | --- | --- | --- | --- |
| N.N.[Cl][Pt][Cl] [Cisplatin, reference compound] | – | – | – | – | – | – | – | – | – | – | – | IC50 ([1]; cisplatin-resistant subline, 96 hours at 37° C., Sulforhodamine B, read-out: IC50 A2780cis^a): 8400 nM; IC50 ([2]; 96 hours at 37° C., Sulforhodamine B): 265 nM |
| COc1cc2c(cc1OCCCOc1cc3c(cc1OC)C(=O)N1CCC[C@@H]1C=N3)N=C[C@@H]1CCCN1C2=O [DSB-120, reference compound] | – | – | – | – | – | – | – | – | – | – | – | Induced ΔTa after incubation at 37° C. for 0 h ([3]; pH 7.00, 0 h): 10.2 °C; Induced ΔTa after incubation at 37° C. for 4 h ([3]; pH 7.00, 4 h): 13.1 °C; Induced ΔTa after incubation at 37° C. for 18 h ([3]; pH 7.00, 18 h): 15.1 °C; IC50 ([1]; Homo sapiens, A2780cisR, 96 h, read-out: IC50 A2780cisR): 210 nM; IC50 ([1]; Homo sapiens, A2780cisR, 96 h, read-out: IC50 A2780cis^a): 210 nM; IC50 ([2]; Homo sapiens, A2780, 96 hours): 7.2 nM |
| COC(=O)CC1=CN2C(=O)c3cc(OC)c(OCc4ccccc4)cc3N=C[C@@H]2C1 [UP2003 (24)] | 12 | 16 | 40 | 700 | 700 | 1400 | 14.5 | 120 | – | – | – | CC50 [8]: 6000 nM; CC50 [9]: 7600 nM; CC50 [11]: 5200 nM; CC50 [12]: 9500 nM |
| COc1ccc(-c2ccc3c(c2)C(=O)N2CCC[C@H]2C=N3)cc1 [UP2027 (138), (11aS)-7-(4′-Methoxyphenyl)-1,2,3,11a-tetrahydro-5H-pyrrolo[2,1-c]-[1,4]benzodiazepin-5-one] | 1700 | 1350 | 1150 | – | – | – | 560 | 1550 | 6600 | 9500 | – | CC50 [18]: 8000 nM |
| C=C1C[C@H]2C=Nc3cc(OC)c(OC)cc3C(=O)N2C1 [UP2064 (74), (11aS)-7,8-Dimethoxy-2-methylidene-1,2,3,11a-tetrahydro-5H-pyrrolo[2,1-c][1.4]benzodiazepin-5-one] | 390 | 66 | 84 | 900 | 600 | 600 | 150 | 360 | 800 | 1700 | 2300 | CC50 [20]: 2600 nM; CC50 [21]: 7400 nM |
| O=C1c2cc(-c3cccc([N+](=O)[O-])c3)ccc2N=C[C@@H]2CCCN12 [UP2029 (140), (11aS)-7-(3′-Nitrophenyl)-1,2,3,11a-tetrahydro-5H-pyrrolo[2,1-c][1,4]benzodiazepin-5-one] | 1400 | 22500 | 14000 | – | – | – | 34500 | 32000 | – | – | – | cytotoxic activity (LC50 below 10 μM) [22]: completely abolished cytotoxic activity |
| COC(=O)CC1=CN2C(=O)c3cc(OC)c(OC)cc3N=C[C@@H]2C1 [UP2065 (42)] | 450 | 115 | 150 | 4700 | – | 4000 | 360 | 460 | 800 | 3500 | 800 | – |
| COc1cc2c(cc1OCc1ccccc1)N=C[C@@H]1CC(=O)CN1C2=O [UP2067 (172)] | – | – | – | 7400 | 3000 | 5800 | – | – | 800 | – | 800 | IC50 ([4]; SK-OV-3, 96 h, read-out: IC50 Skov3, 96 hours, sulphorhodamine B): 540 nM; IC50 ([5]; CH1, 96 h, read-out: IC50 CH1, 96 hours, sulphorhodamine B): 165 nM; IC50 ([6]; 96 h, read-out: IC50 CH1cisR, cisplatin-resistant, 96 hours, sulphorhodamine B): 180 nM; CC50 [23]: 6800 nM; CC50 [24]: 800 nM; CC50 [20]: 6600 nM; CC50 [8]: 5400 nM; CC50 [25]: 600 nM; CC50 [18]: 5000 nM; IC50 ([14]; A2780, 96 h, read-out: IC50 A2780, 96 hours, sulphorhodamine B): 115 nM; IC50 ([15]; 96 h, read-out: IC50 A2780cisR, cisplatin-resistant, 96 hours, sulphorhodamine B): 390 nM |
